# Results: patent publication US12622899B2 (PureTech LYT 100, Inc., priority 2018, dated 2026)
# Columns and labels:
# [1] = test system: patients with Idiopathic Pulmonary Fibrosis (IPF); experiment: IPF trial Part A: safety and tolerability (TEAEs, AESI, dose modifications, discontinuations); type: in vivo
# Method: The primary objective was to determine the dose(s) to carry into Phase 3. […] Patients were randomized to one of the four treatments in a 1:1:1:1 ratio and stratified based on prior exposure to nintedanib (<6 months) versus nintedanib-naïve patients. Patients who completed the Double-blind Treatment Period (Part A) were offered participation in the Long-term Extension (Part B). […] For patients who participated in Part B, the follow-up was conducted at the end of Part B. A graphical illustration of an embodiment of the trial design is provided as FIG. 24B.
# Safety endpoints included: Adverse events, concomitant medications, clinical laboratory findings (chemistry, hematology, urinalysis), physical examinations, ECGs, and vital signs. These will be summarized descriptively, where appropriate.
# Tolerability endpoints included: Frequency of dose modifications (reductions and interruptions), time to first dose modification, (reduction or interruption), duration of adverse events of special interest, time to treatment discontinuation due to an adverse event of special interest and patient reported assessment of IPF symptoms, side-effects, severity, change and satisfaction.
# In this study, AEs are reported for all patients from the time of consent until the completion of the Follow-up visit. AEs reported prior to the first dose are denoted as pre-treatment. SAEs are reported for all patients (randomized or not) from the time of consent. AEs reported from the time of consent to confinement on Day 0 were recorded as pre-treatment AEs.
# Treatment emergent adverse events (TEAEs) are defined as an AE that occurs following first dose of study medication and were evaluated from the first administration of study drug on Day 1 until the Follow-up visit. […]
# This study evaluated in particular the tolerability based on prioritized gastrointestinal adverse events (GI AEs). […]
# [2] = test system: patients with Idiopathic Pulmonary Fibrosis (IPF); experiment: IPF trial Part A: clinical laboratory parameters, liver; type: in vivo, human
# [3] = test system: patients with Idiopathic Pulmonary Fibrosis (IPF); experiment: IPF trial Part B (open label long-term extension): efficacy, safety, TEAEs; type: in vivo, human
# Text: Part B (long-term extension) will evaluate the tolerability and long-term safety of LYT-100 in patients who complete the Double-blind Treatment Period. Part B has two periods. […] Patients completing Part B Period 1 will continue maintenance treatment in Part B Period 2 until the study ends. Part B Period 2 will continue at least until all patients who enter Part B Period 1 have the opportunity to complete Part B Period 1. Tolerability and safety during both Part B Period 1 and Part B Period 2 will be monitored by regularly scheduled review of adverse events (AEs), patient reported symptoms, concomitant medications, clinical laboratory findings, physical examinations, electrocardiograms (ECGs), and vital signs. Efficacy will be assessed by evaluation of pulmonary function and monitored by spirometry at regularly scheduled clinic visits. A graphical illustration of an embodiment of the trial design is provided as FIG. 24C.
# At the start of Part B, all patients received LYT-100 oral tablets. Patients were titrated onto their assigned doses.
# The proportion of patients with prior exposure to nintedanib was limited to 50%.
# One hundred and seventy (170) patients (greater than 90%) enrolled in the Open Label Extension (Part B) of the study.
# healthy older adults = experiment: Study LYT-100-2021-103 Part 3 (Example 2): safety and tolerability vs placebo; conditions: for Abdominal Pain/Discomfort/Distension, adverse events / Diarrhea, adverse events / Dizziness, adverse events / Dyspepsia, adverse events / GI Disorders, adverse events / Headache, adverse events / Nausea, adverse events / Nervous System Disorders, adverse events / Vomiting, adverse events: fed, N=13
# Method: Only subjects who met all the applicable inclusion and none of the applicable exclusion criteria were randomized.
# Safety and tolerability were assessed by monitoring AEs, physical examination, vital signs, 12-lead ECGs, clinical laboratory values (hematology panel, multiphasic chemistry panel and urinalysis), and review of concomitant treatments/medication use.
# [4] = Part A LYT-100 → Part B LYT-100 (N = 81)
# [5] = Part A Pirfenidone → Part B LYT-100 (N = 39)
# [6] = Part A Placebo → Part B LYT-100 (N = 50)
# [7] = Part 3 safety population, LYT-100 550 mg TID Days 1-3 then 824 mg TID Days 4-6, N=24
structure (smiles),measurement,setting,value
"[2H]C([2H])([2H])c1ccc(=O)n(-c2ccccc2)c1 [LYT-100, 5-(methyl-d3)-1-phenylpyridin-2-(1H)-one]","Discontinued, Primary Reason: Death",[1]; 550 mg TID (N = 65),0 n (%)
same,"Discontinued, Primary Reason: Death",[1]; 825 mg TID (N = 64),0 n (%)
same,"liver enzyme elevations, drug-induced liver injury",[2]; IPF Part A,no instances of drug-induced liver injury or Hy's Law
same,"Alanine Aminotransferase (U/L) at Worst Post-Baseline, 3-5 ULN","[2]; TID Pooled (N = 129), N1 120",2 (1.7) n (%)
same,"Alanine Aminotransferase (U/L) at Worst Post-Baseline, 5-8 ULN","[2]; TID Pooled (N = 129), N1 120",1 n (%)
same,"Alanine Aminotransferase (U/L) at Worst Post-Baseline, >8 ULN","[2]; TID Pooled (N = 129), N1 120",2 n (%)
same,"Alanine Aminotransferase (U/L) at Worst Post-Baseline, Total (>3 ULN)","[2]; TID Pooled (N = 129), N1 120",5 (4.2) n (%)
same,"Alanine Aminotransferase or Aspartate Aminotransferase (U/L) at Worst Post-Baseline, 3-5 ULN","[2]; TID Pooled (N = 129), N1 120",2 (1.7) n (%)
same,"Alanine Aminotransferase or Aspartate Aminotransferase (U/L) at Worst Post-Baseline, 5-8 ULN","[2]; TID Pooled (N = 129), N1 120",1 n (%)
same,"Alanine Aminotransferase or Aspartate Aminotransferase (U/L) at Worst Post-Baseline, >8 ULN","[2]; TID Pooled (N = 129), N1 120",2 n (%)
same,"Alanine Aminotransferase or Aspartate Aminotransferase (U/L) at Worst Post-Baseline, Total (>3 ULN)","[2]; TID Pooled (N = 129), N1 120",5 (4.2) n (%)
same,"Aspartate Aminotransferase (U/L) at Worst Post-Baseline, 3-5 ULN","[2]; TID Pooled (N = 129), N1 120",2 (1.7) n (%)
same,"Aspartate Aminotransferase (U/L) at Worst Post-Baseline, 5-8 ULN","[2]; TID Pooled (N = 129), N1 120",0 n (%)
same,"Aspartate Aminotransferase (U/L) at Worst Post-Baseline, >8 ULN","[2]; TID Pooled (N = 129), N1 120",2 n (%)
same,"Aspartate Aminotransferase (U/L) at Worst Post-Baseline, Total (>3 ULN)","[2]; TID Pooled (N = 129), N1 120",4 (3.3) n (%)
same,response in Open Label Extension,"[3]; IPF Part B, ongoing, LYT-100 825 mg TID (FIG. 49)",durable response
same,TEAE Abdominal Pain,[3]; [4],2 (2.5) n (%)
same,TEAE Diarrhea,[3]; [4],2 (2.5) n (%)
same,TEAE Dyspepsia,[3]; [4],7 (8.6) n (%)
same,TEAE Nausea,[3]; [4],5 (6.2) n (%)
same,TEAE SOC Gastrointestinal disorders,[3]; [4],17 (21.0) n (%)
same,TEAE Vomiting,[3]; [4],2 (2.5) n (%)
same,TEAE Abdominal Pain,[3]; [5],1 (2.6) n (%)
same,TEAE Diarrhea,[3]; [5],1 (2.6) n (%)
same,TEAE Dyspepsia,[3]; [5],0 n (%)
same,TEAE Nausea,[3]; [5],2 (5.1) n (%)
same,TEAE SOC Gastrointestinal disorders,[3]; [5],5 (12.8) n (%)
same,TEAE Vomiting,[3]; [5],0 n (%)
same,TEAE Abdominal Pain,[3]; [6],2 (4.0) n (%)
same,TEAE Diarrhea,[3]; [6],2 (4.0) n (%)
same,TEAE Dyspepsia,[3]; [6],7 (14.0) n (%)
same,TEAE Nausea,[3]; [6],7 (14.0) n (%)
same,TEAE SOC Gastrointestinal disorders,[3]; [6],18 (36.0) n (%)
same,TEAE Vomiting,[3]; [6],3 (6.0) n (%)
same,TEAE Abdominal Pain,[3]; Part B Subtotal (N = 170),5 (2.9) n (%)
same,TEAE Diarrhea,[3]; Part B Subtotal (N = 170),5 (2.9) n (%)
same,TEAE Dyspepsia,[3]; Part B Subtotal (N = 170),14 (8.2) n (%)
same,TEAE Nausea,[3]; Part B Subtotal (N = 170),14 (8.2) n (%)
same,TEAE SOC Gastrointestinal disorders,[3]; Part B Subtotal (N = 170),40 (23.5) n (%)
same,TEAE Vomiting,[3]; Part B Subtotal (N = 170),5 (2.9) n (%)
same,deaths or SAEs,healthy older adults; Part 3,No deaths or SAEs
same,"Abdominal Pain/Discomfort/Distension, adverse events","healthy older adults; Part 3, LYT-100 550 mg TID",0 n (%)
same,"Diarrhea, adverse events","healthy older adults; Part 3, LYT-100 550 mg TID",1 (4.2) n (%)
same,"Dizziness, adverse events","healthy older adults; Part 3, LYT-100 550 mg TID",1 (4.2) n (%)
same,"Dyspepsia, adverse events","healthy older adults; Part 3, LYT-100 550 mg TID",1 (4.2) n (%)
same,"GI Disorders, adverse events","healthy older adults; Part 3, LYT-100 550 mg TID",2 (8.3) n (%)
same,"Headache, adverse events","healthy older adults; Part 3, LYT-100 550 mg TID",3 (12.5) n (%)
same,"Nausea, adverse events","healthy older adults; Part 3, LYT-100 550 mg TID",0 n (%)
same,"Nervous System Disorders, adverse events","healthy older adults; Part 3, LYT-100 550 mg TID",3 (12.5) n (%)
same,"Vomiting, adverse events","healthy older adults; Part 3, LYT-100 550 mg TID",0 n (%)
same,tolerability,"healthy older adults; Part 3, LYT-100 824 mg TID, 3 treatment days",well tolerated
same,"Abdominal Pain/Discomfort/Distension, adverse events","healthy older adults; Part 3, LYT-100 824 mg TID",0 n (%)
same,"Diarrhea, adverse events","healthy older adults; Part 3, LYT-100 824 mg TID",0 n (%)
same,"Dizziness, adverse events","healthy older adults; Part 3, LYT-100 824 mg TID",0 n (%)
same,"Dyspepsia, adverse events","healthy older adults; Part 3, LYT-100 824 mg TID",0 n (%)
same,"GI Disorders, adverse events","healthy older adults; Part 3, LYT-100 824 mg TID",0 n (%)
same,"Headache, adverse events","healthy older adults; Part 3, LYT-100 824 mg TID",0 n (%)
same,"Nausea, adverse events","healthy older adults; Part 3, LYT-100 824 mg TID",0 n (%)
same,"Nervous System Disorders, adverse events","healthy older adults; Part 3, LYT-100 824 mg TID",0 n (%)
same,"Vomiting, adverse events","healthy older adults; Part 3, LYT-100 824 mg TID",0 n (%)
same,subjects discontinued due to a TEAE (all Covid-19),"healthy older adults; Part 3, LYT-100 group N=24",3 (12.5%) n (%)
same,subjects with at least one TEAE,"healthy older adults; Part 3, LYT-100 group N=24",8 (33.3%) n (%)
same,subjects with mild TEAEs,"healthy older adults; Part 3, LYT-100 group N=24",7 (29.2%) n (%)
same,COVID-19 TEAE,healthy older adults; [7],4 (16.7) n (%)
same,Headache TEAE,healthy older adults; [7],3 (12.5) n (%)
